In patent publication US7977082B2, “Isomaltulose synthases, polynucleotides encoding them and uses therefor” (The University of Queensland of St. Lucia, priority 2001, dated 2011):
Values joined by “and” are separate entries in the source; they are usually repeats but may differ in a detail not shown here. Equal values may be shown once. Residues, ends and D or L forms follow the SMILES beside them.

B1: Pantoea dispersa 68J sucrose isomerase (SI), mature, SEQ ID NO: 10, carboxy-terminal 6×His tag (SEQ ID NO: 52) (Pantoea dispersa) (protein)
chain: ATNIQKSADFPIWWKQAVFYQIYPRSFKDSNGDGIGDIPGIIEKLDYLKMLGVDAIWINPHYESPNTDNGYDISDYRKIMKEYGSMADFDRLVAEMNKRGMRLMIDIVINHTSDRHRWFVQSRSGKDNPYRDYYFWRDGKQGQAPNNYPSFFGGSAWQLDKQTDQYYLHYFAPQQPDLNWDNPKVRAELYDILRFWLDKGVSGLRFDTVATFSKIPGFPDLSKAQLKNFAEAYTEGPNIHKYIHEMNRQVLSKYNVATAGEIFGVPVSAMPDYFDRRREELNIAFTFDLIRLDRYPDQRWRRKPWTLSQFRQVISQTDRAAGEFGWNAFFLDNHDNPRQVSHFGDDSPQWRERSAKALATLLLTQRATPFIFQGAELGMTNYPFKNIEEFDDIEVKGFWNDYVASGKVNAAEFLQEVRMTSRDNSRTPMQWNDSVNAGFTQGKPWFHLNPNYKQINAAREVNKPDSVFSYYRQLINLRHQIPALTSGEYRDLDPQNNQVYAYTRILDNEKYLVVVNFKPEQLHYALPDNLTIASSLLENVHQPSLQENASTLTLAPWQAGIYKLN
B2: Klebsiella sp. 14S sucrose isomerase (SI), carboxy-terminal 6×His tag (SEQ ID NO: 52) (Klebsiella planticola) (protein)
chain: APSVNQNIHVHKESEYPAWWKEAVFYQIYPRSFKDTNDDGIGDIRGIIEKLDYLKSLGIDAIWINPHYDSPNTDNGYDISNYRQIMKEYGTMEDFDNLVAEMKKRNMRLMIDVVINHTSDQHPWFIQSKSDKNNPYRDYYFWRDGKDNQPPNNYPSFFGGSAWQKDAKSGQYYLHYFARQQPDLNWDNPKVREDLYAMLRFWLDKGVSSMRFDTVATYSKIPGFPNLTPEQQKNFAEQYTMGPNIHRYIQEMNRKVLSRYDVATAGEIFGVPLDRSSQFFDPRRHELNMAFMFDLIRLDRDSNERWRHKSWSLSQFRQIISKMDVTVGKYGWNTFFLDNHDNPRAVSHFGDDRPQWREASAKALATITLTQRATPFIYQGSELGMTNYPFRQLNEFDDIEVKGFWQDYVQSGKVTATEFLDNVRLTSRDNSRTPFQWNDTLNAGFTRGKPWFHINPNYVEINAEREETREDSVLNYYKKMIQLRHHIPALVYGAYQDLNPQDNTVYAYTRTLGNERYLVVVNFKEYPVRYTLPANDAIEEVVIDTQQQATAPHSTSLSLSPWQAGVYKLR

tested on: P. dispersa 68J; assay: Growth in BP medium with different sugars; assay type: cell-based; conditions: 2% sugar added to BP medium, 18 h incubation at 30°C
Experimental: Isomaltulose production was tested using cells grown in LB and in a basal peptone medium (BP, comprising 1% BBL gelysate peptone and 0.5% NaCl, adjusted to pH 7.0 prior to autoclaving). Glucose, fructose, sucrose, lactose, maltose or isomaltulose was added to the cooled media, from a filter-sterilised stock. The media containing 4% (w/v) sucrose are referred to as SLB and SBP respectively.
Inoculum of 100 μL from a culture grown for 12 h in LB medium was added to 25 mL growth medium in a 250 mL flask. After 18 h at 30° C. on a shaker at 225 rpm, OD600 was used to measure growth. Cultures were diluted with growth medium to OD600=1.50 (approximately half the cell density of a saturated culture in SLB). Aliquots of 1 mL were harvested by centrifugation at 5000×g for 10 min and washed three times with 0.1 M citrate/phosphate buffer (pH 6.0). The cell pellets were resuspended in 0.4 mL of 0.1 M citrate/phosphate buffer (pH 6.0) containing 50% sucrose (w/v). Culture supernatant was filtered through a 0.2 μm filter (Pall Acrodisc), and 0.1 mL was mixed with 0.4 mL of 0.1 M citrate/phosphate buffer (pH 6.0) containing 50% sucrose (w/v), for parallel testing of culture filtrate and harvested cells in the SI assay.

Q: With `OC[C@H]1O[C@H](O[C@H]2[C@H](O)[C@@H](O)[C@H](O)O[C@@H]2CO)[C@H](O)[C@@H](O)[C@@H]1O` [Maltose] as the molecule, how does the “effect on growth of P. dispersa 68J” value read?
A: little effect

Q: With `OC[C@H]1O[C@@](CO)(O[C@H]2O[C@H](CO)[C@@H](O)[C@H](O)[C@H]2O)[C@@H](O)[C@@H]1O` [Sucrose] as the molecule, how does the “effect on growth of P. dispersa 68J” value read?
A: supported faster growth

Q: Which “effect on growth of P. dispersa 68J” value does the source give for `OC[C@H]1O[C@@H](O[C@H]2[C@H](O)[C@@H](O)C(O)O[C@@H]2CO)[C@H](O)[C@@H](O)[C@H]1O` (stereo partly drawn) [lactose] here?
A: little effect

substrate: OC[C@H]1O[C@@](CO)(O[C@H]2O[C@H](CO)[C@@H](O)[C@H](O)[C@H]2O)[C@@H](O)[C@@H]1O; assay: Sucrose isomerase kinetics, purified SI from P. dispersa 68J (isomaltulose production), with or without glucose/fructose; assay type: biochemical, Pantoea dispersa 68J; conditions: other: sucrose, pH 6.0, 30° C., Lineweaver and Burk
Experimental: (§1) The pET24b vector introduces a carboxy-terminal 6×His tag (SEQ ID NO: 52) on expressed proteins, which were purified by adsorption to Ni-NTA agarose (Qiagen) and elution with 25 mM NaH2PO4, 150 mM NaCl, 125 mM imidazole buffer (pH8.0) following the manufacturer's instructions. For storage, the eluted solution was diluted with 50% glycerol. The purity of SI proteins was tested by SDS-PAGE as described below. A batch procedure using Ni-NTA agarose in suspension yielded predominantly (80-95%) SI with a background of several other protein bands. A procedure using Ni-NTA agarose in adsorption columns yielded preparations containing a single protein band. […]
(§2) Enzyme activities were measured by incubating 5 μl of purified enzyme with 95 μL of sucrose solution at a final concentration of 584 mM in 0.1 M citrate/phosphate buffer (pH 6.0) at 30° C. Sugar profiles in the reaction mix were analysed at intervals by CE as described previously. […]
(§3) SI activity was measured by incubating the purified enzyme with different sucrose concentrations (3, 6, 15, 58, 146, 292, 584, 877, 1169 and 1461 mM) under standard assay conditions, and also with addition of glucose, fructose or both to a final concentration of 277 mM. Data were analyzed according to the method of Lineweaver and Burk (Voet and Voet, 1995) to calculate Km and Vmax values.

Q: What does the source list for B1?
A: Km: 46.6 mM and 47 mM; Vmax: 636.9 U mg^−1

tested on: P. mesoacidophila sucrose isomerase (SI); assay: not given; conditions: Nagai et al., 1994; Véronèse and Perlot, 1998; cited from earlier work

Q: With `OC[C@H]1OC(O)(CO)[C@@H](O)[C@@H]1O` (stereo partly drawn) [fructose] as the molecule, how does the Inhibition of activity read?
A: not

tested on: strain 68J; assay: Growth of strain 68J with different carbon sources (BIOLOG GN); assay type: cell-based, Pantoea dispersa; parameters: scale not given here; conditions: relative values; 96-well plates (BIOLOG GN)
Experimental: The morphological, cultural and biochemical features of strain 68J were determined in tests using E. coli (Top 10), K. oxytoca (JMP4505), E. rhapontici (WAC2928) as positive/negative controls. Gram stain, fermentation, catalase activity, pigment observation, and Simon's citrate tests were conducted according to Singleton (1999, Bacteria in Biology, Biotechnology and Medicine (5th edition). Wiley, New York). Oxidase activity by Kovac's reagent, indole production by Ehrlich's indole test, methyl red response, Voges-Proskauer reaction in Clark and Lub's medium, urea hydrolysis in Christensen's urea, lysine decarboxylase, ornithine decarboxylase and gelatin liquefaction were tested as described by MacFaddin (1979, Biochemical Tests for Identification of Medical Bacteria. Williams & Wilkins, Baltimore). Morphology, capsules and motility were observed microscopically. Carbon source utilization was tested in 96-well plates (BIOLOG GN).

Q: For `OC[C@H]1O[C@H](OCC2O[C@@H](O)[C@H](O)[C@@H](O)[C@@H]2O)[C@H](O)[C@@H](O)[C@H]1O` (stereo partly drawn) [D-melibiose], which Growth is on record?
A: 6

Q: With `O=P(O)(O)O[C@H]1O[C@H](CO)[C@@H](O)[C@H](O)[C@H]1O` [Glucose-1-phosphate] as the molecule, how does the Growth read?
A: 356

Q: For `OC[C@H]1O[C@H](O[C@H]2O[C@H](CO)[C@@H](O)[C@H](O)[C@H]2O)[C@H](O)[C@@H](O)[C@@H]1O` [D-trehalose], which Growth is on record?
A: 619

Q: With `C[N+](C)(C)CC(O)CC(=O)[O-]` (racemic) [D,L-carnitine] as the molecule, how does the Growth read?
A: −10

Q: With `O=C(CO)[C@@H](O[C@H]1O[C@H](CO)[C@@H](O)[C@H](O)[C@H]1O)[C@H](O)[C@H](O)CO` [Turanose] as the molecule, how does the Growth read?
A: 23

Q: Which Growth does the source give for `O=C(O)/C=C(/CC(=O)O)C(=O)O` [cis-aconitic acid] here?
A: 122

Q: For `O=P(O)(O)OCC(O)CO` (racemic) [D,L-α-glycerol phosphate], which Growth is on record?
A: −8

Q: With `OC[C@@H](O)[C@@H](O)CO` [i-erythritol] as the molecule, how does the Growth read?
A: 0

Q: With `OC[C@H]1O[C@@H]2O[C@H]3[C@H](O)[C@@H](O)[C@@H](O[C@H]4[C@H](O)[C@@H](O)[C@@H](O[C@H]5[C@H](O)[C@@H](O)[C@@H](O[C@H]6[C@H](O)[C@@H](O)[C@@H](O[C@H]7[C@H](O)[C@@H](O)[C@@H](O[C@H]1[C@H](O)[C@H]2O)O[C@@H]7CO)O[C@@H]6CO)O[C@@H]5CO)O[C@@H]4CO)O[C@@H]3CO` [a-cyclodextrin] as the molecule, how does the Growth read?
A: 9

Q: With `O[C@H]1[C@H](O)[C@@H](O)[C@H](O)[C@@H](O)[C@H]1O` [m-inositol] as the molecule, how does the Growth read?
A: 611

Q: Which Growth does the source give for `O=C1O[C@@H]([C@H](O)CO)[C@H](O)[C@H]1O` [D-galactonic acid lactone] here?
A: −7

Q: Which Growth does the source give for `CO[C@@H]1O[C@H](CO)[C@@H](O)[C@H](O)[C@H]1O` [β-methyl D-glucosidase] here?
A: 684

Q: Which Growth does the source give for `CC(O)C(=O)O` (racemic) [D,L-lactic acid] here?
A: 365

Q: With `OC[C@@H](O)C(O)[C@H](O)CO` [D-arabitol] as the molecule, how does the Growth read?
A: −11

Q: Which Growth does the source give for 2,3-butynediol here?
A: 1

Q: With `N[C@@H](C(=O)O)[C@@H](O)[C@H](O)[C@H](O)CO` [D-glucosaminic acid] as the molecule, how does the Growth read?
A: 1

Q: Which Growth does the source give for `OC[C@H]1O[C@H](OC[C@H]2O[C@H](O[C@]3(CO)O[C@H](CO)[C@@H](O)[C@@H]3O)[C@H](O)[C@@H](O)[C@@H]2O)[C@H](O)[C@@H](O)[C@H]1O` [D-raffinose] here?
A: 330

Q: With `O=C(O)CCC(=O)C(=O)O` [α-keto glutanic acid] as the molecule, how does the Growth read?
A: 91

Q: With `O=C(O)[C@H]1OC(O)[C@H](O)[C@@H](O)[C@@H]1O` (stereo partly drawn) [D-glucoronic acid] as the molecule, how does the Growth read?
A: 6

Q: For α-D-lactose lactulose, which Growth is on record?
A: 12

Q: For `NCCO` [2-amino ethanol], which Growth is on record?
A: −4

Q: With `O=C(O)Cc1ccc(O)cc1` [ρ-hydroxy phenylacetic acid] as the molecule, how does the Growth read?
A: 5

Q: For Tween40, which Growth is on record?
A: 25

Q: Which Growth does the source give for `C[C@@H](O)[C@H](N)C(=O)O` [L-theronine] here?
A: −12

Q: Which Growth does the source give for `NCC(=O)N[C@@H](CC(=O)O)C(=O)O` [Glycyl-L-aspatic acid] (H-Gly-Asp-OH) here?
A: −8

tested on: K. plymuthica sucrose isomerase (SI); assay: not given; conditions: Nagai et al., 1994; Véronèse and Perlot, 1998; cited from earlier work

Q: For `OC[C@H]1OC(O)(CO)[C@@H](O)[C@@H]1O` (stereo partly drawn) [fructose], which Inhibition of activity is on record?
A: not

tested on: E. rhapontici sucrose isomerase (SI); assay: not given; conditions: Nagai et al., 1994; Véronèse and Perlot, 1998; cited from earlier work

Q: For `OC[C@H]1OC(O)(CO)[C@@H](O)[C@@H]1O` (stereo partly drawn) [fructose], which Inhibition of activity is on record?
A: not

tested on: P. rubrum sucrose isomerase (SI); assay: not given; conditions: Nagai et al., 1994; Véronèse and Perlot, 1998; cited from earlier work

Q: For `OC[C@H]1OC(O)(CO)[C@@H](O)[C@@H]1O` (stereo partly drawn) [fructose], which Inhibition of activity is on record?
A: not

substrate: OC[C@H]1O[C@@](CO)(O[C@H]2O[C@H](CO)[C@@H](O)[C@H](O)[C@H]2O)[C@@H](O)[C@@H]1O; assay: Sucrose isomerase kinetics, purified SI from Klebsiella sp. 14S (isomaltulose production), with or without glucose/fructose; assay type: biochemical; conditions: other: sucrose, pH 6.0, 30° C., Lineweaver and Burk
Experimental: as §1, §2, §3

Q: For B2, which Km is on record?
A: 81.6 mM

Q: What about the Vmax of the same molecule?
A: 99.8 U mg^−1
